Columns and labels:
Type in all cases: biochemical
[1] = biological target: KLK7 (Homo sapiens, UniProt P49862); test: KLK7 enzyme inhibition assay, fluorogenic substrate Suc-Leu-Leu-Val-Tyr-AMC; conditions: for IC50: Table A, read-out: IC50 (μM) KLK7; for IC50 / inhibition at 100 µM / inhibition at 10 µM / inhibition at 50 µM: 37° C., 15 min of incubation, pH 8; for selective activity against enzyme: KLK7: Table B, among KLK5, KLK7 and KLK14
Description: (§1) Kallikreins KLK5, KLK7 and KLK14 activities were determined by monitoring the hydrolysis of the appropriate fluorogenic substrate (λexc=355, λem=460 nm) for 15 min at 37° C. in the presence of the untreated kallikrein (control) or kallikrein that had been incubated with a test compound. Substrate and compounds were previously dissolved in DMSO, with the final solvent concentration kept constant at 2% (v/v) (KLK 5 and 14), and 4% (v/v) (KLK7). The composition of the activity buffers (pH 8.0) was 100 mM Tris-HCl, 150 mM NaCl, 0.01% (v/v) Tween 20 for the KLK5 assay, and 100 mM Tris-HCl, 1M NaCl, 0.01% (v/v) Tween 20 in the KLK 7 and 14 assays. The final concentrations were 0.6 nM (KLK5) and 100 μM (Boc-Val-Pro-Arg-AMC) (KLK5 assay), 8 nM (KLK7) and 40 μM (Suc-Leu-Leu-Val-Tyr-AMC, AMC: 7-amino-4-methyl-coumarin) (KLK7 assay), and 0.17 nM (KLK14) and 10 μM (Boc-Val-Pro-Arg-AMC) (KLK14 assay). Using the appropriate substrate, the coumarinic compounds (0.01-100 μM) were tested in duplicate for each inhibitor concentration to detect their inhibitory potential. The enzyme and the inhibitors were incubated for 15 min before the determination of the enzyme activity. Initial rates determined in control experiments (V0) were considered to be 100% of the peptidase activity; initial rates below 100% were considered to be inhibitions. The inhibitory activity of compounds was expressed as IC50 (inhibitor concentrations giving 50% inhibition). The values of IC50 were calculated by fitting the experimental data to the equation: % Inhibition=100×(1−Vi/V0)=100[I]0/(IC50+[I]0), or equation: % Inhibition=100[I]0^nH/(IC50^nH+[I]0^nH),nH is the Hill number.
(§2) The tests were realized at 37° C. after 15 min of incubation at pH 8.

[2] = biological target: T1, KLK14 (Homo sapiens, UniProt Q9P0G3); test: KLK14 enzyme inhibition assay, fluorogenic substrate Boc-Val-Pro-Arg-AMC; conditions: for inhibition at 50 µM / inhibition at 100 µM / IC50: 37° C., 15 min of incubation, pH 8; for selective activity against enzyme: KLK14: Table B, among KLK5, KLK7 and KLK14; for IC50: Table A, read-out: IC50 (μM) KLK14
T1 sequence (Q9P0G3 25-251): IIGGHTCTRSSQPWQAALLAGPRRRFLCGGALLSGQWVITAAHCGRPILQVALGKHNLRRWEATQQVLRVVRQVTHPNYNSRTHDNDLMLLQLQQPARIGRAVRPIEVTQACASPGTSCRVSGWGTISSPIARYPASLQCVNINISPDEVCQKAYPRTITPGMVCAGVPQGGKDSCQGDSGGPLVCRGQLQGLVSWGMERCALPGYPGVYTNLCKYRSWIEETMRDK
Description: as §1, §2

[3] = biological target: T2, KLK5 (Homo sapiens, UniProt Q9Y337); test: KLK5 enzyme inhibition assay, fluorogenic substrate Boc-Val-Pro-Arg-AMC; conditions: for inhibition at 100 µM / IC50 / inhibition at 50 µM: 37° C., 15 min of incubation, pH 8; for IC50: Table A, read-out: IC50 (μM) KLK5; for selective activity against enzyme: KLK5: Table B, among KLK5, KLK7 and KLK14
T2 sequence (Q9Y337 23-293): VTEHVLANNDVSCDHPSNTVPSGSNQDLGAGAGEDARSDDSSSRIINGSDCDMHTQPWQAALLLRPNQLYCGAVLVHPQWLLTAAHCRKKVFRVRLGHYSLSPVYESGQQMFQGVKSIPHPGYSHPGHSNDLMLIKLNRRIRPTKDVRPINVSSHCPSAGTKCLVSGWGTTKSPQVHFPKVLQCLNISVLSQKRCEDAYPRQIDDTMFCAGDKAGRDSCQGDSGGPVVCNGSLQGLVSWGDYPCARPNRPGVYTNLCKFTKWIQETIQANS
Description: as §1, §2

KLK7, sequence (P49862 30-253): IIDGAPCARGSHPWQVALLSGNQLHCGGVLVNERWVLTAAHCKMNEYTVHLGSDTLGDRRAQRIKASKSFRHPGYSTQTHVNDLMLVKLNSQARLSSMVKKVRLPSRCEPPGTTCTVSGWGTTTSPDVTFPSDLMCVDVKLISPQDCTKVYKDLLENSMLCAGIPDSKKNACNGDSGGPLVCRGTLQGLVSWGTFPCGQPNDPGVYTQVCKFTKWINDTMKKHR

SMILES: CC(=O)OCc1ccc2oc(=O)c(C(=O)Oc3cc(Cl)ccc3Cl)cc2c1 [CFL4]
- IC50 [1]: 5.01 ± 0.4 µM
- inhibition at 50 µM [2]: 60%

SMILES: O=C(Oc1cc(F)ccc1F)c1cc2ccccc2oc1=O [CFL7]
- inhibition at 100 µM [1]: 33%
- inhibition at 100 µM [2]: 33%

SMILES: O=C(Oc1cc(F)ccc1Br)c1cc2cc(CCl)ccc2oc1=O [CFL15]
- inhibition at 100 µM [3]: 47%
- IC50 [1]: 0.352 ± 0.055 µM
- selective activity against enzyme: KLK7 [1]: KLK7
- inhibition at 100 µM [2]: 45%

SMILES: O=C(Oc1cc(F)ccc1[N+](=O)[O-])c1cc2cc(CCl)ccc2oc1=O [CFL16]
- inhibition at 100 µM [3]: 40%
- IC50 [1]: 0.9 ± 0.4 µM
- inhibition at 100 µM [2]: 73%

SMILES: CC(=O)OCc1ccc2oc(=O)c(C(=O)Oc3cc(F)ccc3Br)cc2c1 [CFL17]
- inhibition at 100 µM [1]: 33%
- inhibition at 50 µM [2]: 50%
- selective activity against enzyme: KLK14 [2]: KLK14

SMILES: O=C(Oc1cc([N+](=O)[O-])ccc1[N+](=O)[O-])c1cc2cc(CCl)ccc2oc1=O [CFL21]
- IC50 [3]: 121 µM
- inhibition at 100 µM [1]: 22%
- inhibition at 100 µM [2]: 43%
- selective activity against enzyme: KLK14 [2]: KLK14

SMILES: Cc1ccc2oc(=O)c(C(=O)Oc3cc(F)ccc3[N+](=O)[O-])cc2c1 [CFL25]
- IC50 [3]: 44 ± 10 µM
- IC50 [2]: 68 ± 9 µM

SMILES: CCOC(=O)c1cc2cc(C)ccc2oc1=O [Compound D5]
- inhibition at 100 µM [3]: 90%
- inhibition at 100 µM [1]: 61%
- inhibition at 100 µM [2]: 38%

SMILES: CC(=O)c1cc2cc(C)ccc2oc1=O [Compound D9]
- inhibition at 100 µM [3]: 80%
- selective activity against enzyme: KLK5 [3]: KLK5
- inhibition at 100 µM [2]: 40%

SMILES: COC(=O)c1ccccc1OC(=O)c1cc2cc(CCl)ccc2oc1=O [IK1]
- IC50 [3]: 26.3 ± 1.4 µM
- IC50 [1]: 2.7 ± 0.1 µM
- IC50 [2]: 38 ± 5 µM

SMILES: O=C(O)c1ccc(Cl)cc1OC(=O)c1cc2cc(CCl)ccc2oc1=O [IK5]
- IC50 [3]: 36.9 ± 4.2 µM
- IC50 [1]: 5.8 ± 0.2 µM
- IC50 [2]: 89 ± 10 µM

SMILES: COC(=O)c1ccccc1OC(=O)c1cc2cc(COC(C)=O)ccc2oc1=O [IK8]
- IC50 [3]: ~40 µM
- IC50 [1]: 64.3 ± 2.7 µM
- inhibition at 100 µM [2]: 64%

SMILES: CC(=O)OCc1ccc2oc(=O)c(C(=O)Oc3cccc(Br)c3)cc2c1 [IK9]
- inhibition at 50 µM [3]: 22%
- selective activity against enzyme: KLK5 [3]: KLK5

SMILES: CC(=O)OCc1ccc2oc(=O)c(C(=O)Oc3cccc(F)c3)cc2c1 [IK10]
- inhibition at 50 µM [3]: 23%
- selective activity against enzyme: KLK5 [3]: KLK5

SMILES: O=C(O)c1ccccc1OC(=O)c1cc2cc(CCl)ccc2oc1=O [IK11]
- inhibition at 50 µM [3]: 37.4%
- inhibition at 100 µM [1]: 63%
- IC50 [2]: 43 ± 4 µM

SMILES: COC(=O)c1ccc(OC(=O)c2cc3cc(CCl)ccc3oc2=O)cc1 [IK13]
- inhibition at 100 µM [1]: 34%
- inhibition at 100 µM [2]: 72%
- selective activity against enzyme: KLK14 [2]: KLK14

SMILES: NCc1ccc2oc(=O)c(C(=O)Oc3cccc(Br)c3)cc2c1 [IK48]
- inhibition at 50 µM [3]: 27%
- IC50 [1]: 9.7 ± 1.3 µM
- inhibition at 50 µM [2]: 32%

SMILES: CC(=O)NCc1ccc2oc(=O)c(C(=O)Oc3cccc(Br)c3)cc2c1 [IK49]
- inhibition at 10 µM [1]: 54%
- selective activity against enzyme: KLK7 [1]: KLK7

SMILES: CC(=O)NCc1ccc2oc(=O)c(C(=O)Oc3cccc(Cl)c3)cc2c1 [IK53]
- inhibition at 10 µM [1]: 54%
- selective activity against enzyme: KLK7 [1]: KLK7

SMILES: O=C(Oc1cncc(Cl)c1)c1cc2cc(CCl)ccc2oc1=O [LP2]
- IC50 [1]: 0.128 ± 0.03 µM
- selective activity against enzyme: KLK7 [1]: KLK7

SMILES: O=C(Oc1cccc(Cl)c1)c1cc2cc(CCl)ccc2oc1=O [LP8]
- inhibition at 100 µM [3]: 49%
- IC50 [1]: 0.103 ± 0.005 µM
- selective activity against enzyme: KLK7 [1]: KLK7
- inhibition at 100 µM [2]: 40%

SMILES: O=C(Oc1ccccc1I)c1cc2cc(CCl)ccc2oc1=O [LP15]
- IC50 [1]: 1.9 ± 0.1 µM
- inhibition at 100 µM [2]: 35%

SMILES: O=C(Oc1ccc(I)cc1)c1cc2cc(CCl)ccc2oc1=O [LP16]
- inhibition at 50 µM [1]: 47%

SMILES: CCC(=O)OCc1ccc2oc(=O)c(C(=O)Oc3cncc(Cl)c3)cc2c1 [LP42]
- inhibition at 50 µM [3]: 22%
- inhibition at 100 µM [1]: 52%
- selective activity against enzyme: KLK7 [1]: KLK7

SMILES: CCOC(=O)c1cc2cc(COC(C)=O)ccc2oc1=O [LP43]
- inhibition at 100 µM [3]: 49%
- inhibition at 100 µM [1]: 30%
- inhibition at 100 µM [2]: 49%

SMILES: CC(=O)OCc1ccc2oc(=O)c(C(=O)Oc3cccc(Cl)c3)cc2c1 [LP46]
- inhibition at 50 µM [3]: 31%
- IC50 [2]: 31 ± 6 µM

SMILES: O=C(Oc1cccc(F)c1)c1cc2cc(CCl)ccc2oc1=O [LP51]
- inhibition at 50 µM [3]: 26%
- IC50 [1]: 0.25 ± 0.01 µM
- selective activity against enzyme: KLK7 [1]: KLK7
- inhibition at 100 µM [2]: 30%

SMILES: NCc1ccc2oc(=O)c(C(=O)Oc3ccccc3)cc2c1 [LP71]
- IC50 [3]: 182 ± 14 µM

SMILES: O=C(Oc1cc(Cl)cc(Cl)c1)c1cc2cc(CCl)ccc2oc1=O [LP75]
- IC50 [3]: 80 ± 8 µM
- IC50 [1]: 0.136 ± 0.012 µM

SMILES: Cc1cc(OC(=O)c2cc3cc(CCl)ccc3oc2=O)ccc1Cl [MFS35]
- inhibition at 100 µM [1]: 55%
- inhibition at 100 µM [2]: 71%
- selective activity against enzyme: KLK14 [2]: KLK14

SMILES: O=C(Oc1ccccc1)c1cc2cc(O)ccc2oc1=O [MH8]
- inhibition at 50 µM [1]: 25%
- selective activity against enzyme: KLK7 [1]: KLK7

SMILES: O=C(Oc1ccccc1Cl)c1cc2cc(O)ccc2oc1=O [MH14]
- inhibition at 50 µM [1]: 35%
- selective activity against enzyme: KLK7 [1]: KLK7

SMILES: CS(=O)(=O)NCc1ccc2oc(=O)c(C(=O)Oc3cccc(Cl)c3)cc2c1 [MH24]
- IC50 [1]: 33.2 ± 1.4 µM
- inhibition at 50 µM [2]: 42%

SMILES: CC(=O)NCc1ccc2oc(=O)c(C(=O)Oc3ccc(Br)cc3)cc2c1 [MH52]
- inhibition at 10 µM [1]: 58%
- selective activity against enzyme: KLK7 [1]: KLK7

SMILES: CC(=O)OCc1ccc2oc(=O)c(C(=O)Oc3ccccc3Br)cc2c1 [SMB26]
- inhibition at 10 µM [1]: 52%
- selective activity against enzyme: KLK7 [1]: KLK7

SMILES: CC(=O)OCc1ccc2oc(=O)c(C(=O)Oc3ccccc3Cl)cc2c1 [SMB27]
- inhibition at 50 µM [1]: 42%
- inhibition at 50 µM [2]: 27%

SMILES: CC(=O)OCc1ccc2oc(=O)c(C(=O)Oc3ccccc3I)cc2c1 [SMB28, 2-iodophenyl 6-acetoxymethyl-2-oxo-2H-1-benzopyran-3-carboxylate]
- IC50 [1]: 82.2 ± 13.2 µM
- selective activity against enzyme: KLK7 [1]: KLK7

SMILES: CC(=O)OCc1ccc2oc(=O)c(C(=O)Oc3ccccc3C#N)cc2c1 [SMB33, 2-cyanophenyl 6-acetoxymethyl-2-oxo-2H-1-benzopyran-3-carboxylate]
- inhibition at 50 µM [2]: 27%
- selective activity against enzyme: KLK14 [2]: KLK14

— patent US9814696B2, “Use of coumarin derivatives for the preparation of drugs for treating skin diseases” (UNIVERSITE PIERRE ET MARIE CURIE (PARIS 6), priority 2011, dated 2017)
